Source: ChEMBL document CHEMBL6134780, “Halogenated retinoid derivatives as dual RARα and RXRα modulators for treating acute promyelocytic leukemia cells” (Eur J Med Chem, 2024)
Each block holds one compound with its values, some of them ahead of it. Activity calls are given as the source filed them. The rule behind the calls is not given here.

What was measured:
NB-4 [1] = assay: Induction of cell differentiation in human NB4 cells at 0.5 uM incubated for 4 to 6 days by CD11b staining based flow cytometric analysis; type: functional; conditions: time 4-6 day
NB-4 [2] = assay: Cell cycle arrest in human NB4 cells assessed as accumulation of cells at G0/G1 phase at 0.5 uM incubated for 6 days for DAPI staining based flow cytometric analysis (reference value: 52 %); type: functional; conditions: time 6 day
NB-4 [3] = assay: Cell cycle arrest in human NB4 cells assessed as accumulation of cells at G2/M phase at 0.5 uM incubated for 6 days for DAPI staining based flow cytometric analysis (reference value: 15 %); type: functional; conditions: time 6 day
K562 [4] = assay: Effect on cell cycle population in human K562 cells at 0.5 uM by DAPI staining based flow cytometric analysis; type: functional
NB-4 [5] = assay: Induction of apoptosis in human NB4 cells assessed as viable cells at 1 uM incubated for 24 hrs by Annexin V-FITC/PI staining based flow cytometric analysis (reference value: 92.36 %); type: functional; conditions: read-out: Activity
NB-4 [6] = assay: Induction of apoptosis in human NB4 cells assessed as early apoptotic cells at 1 uM incubated for 24 hrs by Annexin V-FITC/PI staining based flow cytometric analysis (reference value: 4.37 %); type: functional
[7] = Induction of apoptosis in human ATRA-resistant NB4-LR2 cells assessed as early apoptotic cells at 1 uM incubated for 24 hrs by Annexin V-FITC/PI staining based flow cytometric analysis (reference value: 5.38 %); type: functional
K562 [8] = assay: Induction of apoptosis in human K562 cells assessed as late apoptotic cells at 2 uM incubated for 24 hrs by Annexin V-FITC/PI staining based flow cytometric analysis (reference value: 5.98 %); type: functional
K562 [9] = assay: Induction of apoptosis in human K562 cells assessed as viable cells at 1 uM incubated for 24 hrs by Annexin V-FITC/PI staining based flow cytometric analysis (reference value: 90.02 %); type: functional; conditions: read-out: Activity
K562 [10] = assay: Induction of apoptosis in human K562 cells assessed as late apoptotic cells at 1 uM incubated for 24 hrs by Annexin V-FITC/PI staining based flow cytometric analysis (reference value: 5.98 %); type: functional
[11] = biological target: T1, Retinoic acid receptor RXR-beta (Homo sapiens) (UniProt P28702); assay: Agonist activity at Gal4-fused full length RXRbeta LBD (unknown origin) transfected in HEK293T cells co-transfected with pG5luc reporter and Renilla-luc at 0.1 to 1 uM incubated for 12 hrs by luciferase reporter gene assay; type: cell-based; conditions: dose 0.1-1 µM
T1 sequence (whole entry): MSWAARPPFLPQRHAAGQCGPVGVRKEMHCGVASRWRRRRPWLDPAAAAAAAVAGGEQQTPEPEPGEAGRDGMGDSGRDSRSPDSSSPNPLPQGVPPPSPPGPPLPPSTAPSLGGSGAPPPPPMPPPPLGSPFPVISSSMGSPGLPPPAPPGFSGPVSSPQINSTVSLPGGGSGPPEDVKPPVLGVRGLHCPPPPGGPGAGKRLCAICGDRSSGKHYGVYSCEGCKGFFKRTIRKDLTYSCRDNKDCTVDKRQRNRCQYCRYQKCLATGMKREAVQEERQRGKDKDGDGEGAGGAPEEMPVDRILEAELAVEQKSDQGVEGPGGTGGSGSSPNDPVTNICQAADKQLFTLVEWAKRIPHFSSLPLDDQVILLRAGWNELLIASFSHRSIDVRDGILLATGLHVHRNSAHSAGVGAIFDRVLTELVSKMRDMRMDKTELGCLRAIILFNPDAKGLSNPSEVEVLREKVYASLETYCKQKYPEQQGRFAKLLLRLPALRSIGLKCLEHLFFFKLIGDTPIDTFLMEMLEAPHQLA

[12] = biological target: T2, Retinoic acid receptor beta (Homo sapiens) (UniProt P10826); assay: Agonist activity at Gal4-fused full length RARbeta LBD (unknown origin) transfected in HEK293T cells co-transfected with pG5luc reporter and Renilla-luc at 0.1 to 1 uM incubated for 12 hrs by luciferase reporter gene assay; type: cell-based; conditions: dose 0.1-1 µM
T2 sequence (whole entry): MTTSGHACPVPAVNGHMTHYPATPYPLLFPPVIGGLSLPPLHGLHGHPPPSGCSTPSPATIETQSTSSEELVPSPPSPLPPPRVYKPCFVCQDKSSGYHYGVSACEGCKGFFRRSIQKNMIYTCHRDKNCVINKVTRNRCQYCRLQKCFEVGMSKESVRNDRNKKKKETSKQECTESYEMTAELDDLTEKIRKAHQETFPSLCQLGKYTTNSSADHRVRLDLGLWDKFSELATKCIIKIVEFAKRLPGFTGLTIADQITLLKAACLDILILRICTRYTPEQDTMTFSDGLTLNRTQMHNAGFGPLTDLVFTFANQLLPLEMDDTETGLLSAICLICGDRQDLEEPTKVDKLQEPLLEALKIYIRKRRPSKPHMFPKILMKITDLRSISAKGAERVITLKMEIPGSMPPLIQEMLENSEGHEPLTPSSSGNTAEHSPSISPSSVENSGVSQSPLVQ

[13] = biological target: T3, Retinoic acid receptor RXR-gamma (Homo sapiens) (UniProt P48443); assay: Agonist activity at Gal4-fused full length RXRgamma LBD (unknown origin) transfected in HEK293T cells co-transfected with pG5luc reporter and Renilla-luc at 0.1 to 1 uM incubated for 12 hrs by luciferase reporter gene assay; type: cell-based; conditions: dose 0.1-1 µM
T3 sequence (whole entry): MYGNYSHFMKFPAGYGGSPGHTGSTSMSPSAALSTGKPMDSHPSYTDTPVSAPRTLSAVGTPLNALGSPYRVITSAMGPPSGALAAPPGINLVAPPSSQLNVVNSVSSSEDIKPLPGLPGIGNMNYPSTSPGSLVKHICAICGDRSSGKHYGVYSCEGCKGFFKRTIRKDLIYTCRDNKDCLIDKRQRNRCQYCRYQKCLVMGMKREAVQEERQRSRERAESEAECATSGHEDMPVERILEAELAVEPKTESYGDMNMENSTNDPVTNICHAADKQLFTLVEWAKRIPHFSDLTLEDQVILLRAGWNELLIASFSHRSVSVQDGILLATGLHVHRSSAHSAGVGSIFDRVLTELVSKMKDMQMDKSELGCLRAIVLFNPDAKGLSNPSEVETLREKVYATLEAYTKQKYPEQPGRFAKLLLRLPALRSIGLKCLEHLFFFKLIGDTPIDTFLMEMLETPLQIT

NB4 = assay: Induction of PML-RARalpha degradation in human NB4 cells at 0.5 uM incubated for 6 days by Western blot analysis; type: cell-based; conditions: time 6.0 day
NB-4 [14] = assay: Cell cycle arrest in human NB4 cells assessed as increase in cyclin B1 expression at 2 uM incubated for 3 to 24 hrs by Western blot analysis; type: functional, cell-based; conditions: time 3-24 hrs
NB-4 [15] = assay: Induction of mitosis in human NB4 cells assessed as upregulation of pS10-histone expression at 2 uM measured after 3 hrs by Western blot analysis; type: functional, cell-based
ATRA-resistant NB4-LR2 [16] = assay: Induction of mitosis in human ATRA-resistant NB4-LR2 cells assessed as upregulation of pT210-PLK1 expression at 2 uM measured after 3 hrs by Western blot analysis; type: functional, cell-based
ATRA-resistant NB4-LR2 [17] = assay: Induction of DNA damage in human ATRA-resistant NB4-LR2 cells assessed as increase in gamma-H2AX expression at 2 uM by Western blot analysis; type: functional, cell-based

Activity [11]: Weak_effect
Activity [12]: Minimal_effect
Activity [13]: Minimal_effect
SMILES: Cc1cc2c(cc1C(=O)/C(Br)=C/c1ccc(C(=O)O)cc1)C(C)(C)CCC2(C)C
Activity (NB-4 [1]): Active
Activity (NB-4 [2]): 71%
Activity (NB-4 [3]): 13%
Activity (K562 [4]): inactive
viability at 1 µM (NB-4 [5]): 59.8%
Activity (NB-4 [6]): 23.14%
Activity [7]: 29.03%
Activity (K562 [8]): 7.92%
viability at 1 µM (K562 [9]): 89.3%
Activity (K562 [10]): 7.4%
Activity (NB4): Active
Activity (NB-4 [14]): Active
Activity (NB-4 [15]): Active
Activity (ATRA-resistant NB4-LR2 [16]): Active
Activity (ATRA-resistant NB4-LR2 [17]): Active; Dna Damage Detected When Apoptosis Occurred

Activity [11]: Weak_effect
Activity [12]: Minimal_effect
Activity [13]: Minimal_effect
SMILES: Cc1cc2c(cc1C(=O)/C(Br)=C\c1ccc(C(=O)O)cc1)C(C)(C)CCC2(C)C
Activity (NB-4 [1]): Active
Activity (NB-4 [2]): 72%
Activity (NB-4 [3]): 14%
Activity (K562 [4]): inactive
viability at 1 µM (NB-4 [5]): 76.7%
Activity (NB-4 [6]): 12.39%
Activity [7]: 20.24%
Activity (K562 [8]): 7.14%
viability at 1 µM (K562 [9]): 90.4%
Activity (K562 [10]): 6.86%
Activity (NB4): Active
Activity (NB-4 [14]): Active
Activity (NB-4 [15]): Active
Activity (ATRA-resistant NB4-LR2 [16]): Active
Activity (ATRA-resistant NB4-LR2 [17]): Active; Dna Damage Detected When Apoptosis Occurred
